Data published in patent publication US20230380419A1, “NANOCOMPOSITE COMPOSITIONS COMPRISING MULTI-VALENT METAL MATERIAL AND IMMOBILIZED QUAT MATERIAL, METHODS OF MAKING THE COMPOSITIONS AND METHODS OF USING THE COMPOSITIONS” (UNIVERSITY OF CENTRAL FLORIDA RESEARCH FOUNDATION, INC., priority 2015, published 2023).

Tests used:
[1] = tested on: E. coli; assay: Minimum Inhibitory Concentration (MIC) assay, broth microdilution and alamar blue; assay type: cell-based; conditions: single-active controls; 24 hours incubation
[2] = tested on: X. alfalfae; assay: as above; assay type: cell-based; conditions: single-active controls; 24 hours incubation
Description: Although not depicted in the figures, the antimicrobial properties of LSP materials and components were studied using standard microbiological technique to determine the Minimum Inhibitory Concentration (MIC). Samples were tested against Gram-negative Xanthomonas alfalfae subsp. citrumelonis strain F1 (ATCC 49120, a citrus canker surrogate), Gram-negative Pseudomonas syringae pv. syringae (ATCC 19310, causative agent of bacterial speck in Lilac, almond, apricots, peaches and wild beans among others) and Gram positive Clavibacter michiganensis subsp. michiganensis (ATCC 10202, causative agent of bacterial wilt and canker in Tomato sp). X. alfalfae and P. syringae were maintained with nutrient agar and broth while C. michiganensis was grown with brain heart infusion (BHI) media. All bacteria were grown at 26° C. in a shaking incubator (150 rpm).
Minimum Inhibitory Concentration (MIC) Assay
MIC was determined using two different methods: • a. Broth microdilution: Protocols as delineated by the Clinical and Laboratory Standards Institute (CLSI) were followed for conducting MIC studies to be in compliance with American Society of Microbiology guidelines. […] Since broth microdilution is based only on light absorbance, low concentration of bacteria can fall below the detection limit of the traditional optical density measurement. […]

SMILES | MIC E. coli [1] | MIC X. alfalfae [2]
O=S(=O)([O-])[O-].[Cu+2] [CuSO4] | 250-500 μg active/mL | 125-250 μg active/mL
CCCCCCCCCC[N+](C)(C)CCCCCCCCCC.[Cl-] [Quat, Didecyl Dimethyl Ammonium Chloride] | 2-4 μg active/mL | 2-4 μg active/mL
